Measured values taken from US5922580A, “Non-reducing saccharide-forming enzyme, its preparation and uses” (priority 1992, dated 1999).

Legend:
[1] = tested on: non-reducing saccharide-forming enzyme; assay type: biochemical, Rhizobium sp. M-11; conditions: for Percentage of newly-formed saccharide (P I to P V) in reaction product / Formation of novel saccharide from substrate: 20% substrate, 40° C., pH 7.0, 48 hours; for Percentage of newly-formed saccharide (P I to P V) in reaction product: 2 units per g substrate, HPLC; for Percentage of remaining substrate in reaction product: non-reducing saccharide-forming enzyme, 48 h, pH 7
Description: An aqueous solution containing 20% glucose, maltose, maltotriose, maltotetraose, maltopentaose, maltohexaose or maltoheptaose as a substrate was prepared, and mixed with 2 units per g substrate, d.s.b., of the purified enzyme preparation obtained in Experiment 2, and the resultant mixture was subjected to an enzymatic reaction at 40° C. and pH 7.0 for 48 hours. The reaction mixture was desalted and analyzed on high-performance liquid chromatography (HPLC) using "Wakobeads WB-T-330 column", a product of Wako Pure Chemical Industries Ltd., Tokyo, Japan. The HPLC procedure was conducted at an ambient temperature and a flow rate of 0.5 ml/min of water as an eluent, and "RI-8012", a differential refractometer commercialized by Tosho Corporation, Tokyo, Japan, was used for analyzing reaction products.

[2] = Maillard reaction with glycine; assay type: physicochemical; conditions: 1% glycine, 10% saccharide, 50 mM phosphate buffer pH 7.0, 100° C. for 90 min; absorbance in 1-cm cell
Description: As a control, maltotriose, maltotetraose, maltopentaose, maltohexaose and maltoheptaose as a material for the saccharide preparations were similarly treated as above, and measured their absorbances were measured at a wave length of 480 nm.

[3] = Reducing power by Somogyi-Nelson's method expressed as DE; assay type: physicochemical; conditions: products of Examples A
Description: The reducing powders of these novel saccharides were determined on the Somogyi-Nelson's method and expressed by DE (dextrose equivalent).

Row | Compound | Percentage of newly-formed saccharide (P I to P V) in reaction product [1] [%] | Percentage of remaining substrate in reaction product [1] [%] | Coloration degree (480 nm) [2] | Formation of novel saccharide from substrate [1] | Initial reducing power that diminishes by the enzymatic reaction ([1]; substrate of the present enzyme) | DE of product [3]
1 | OC[C@H]1O[C@H](O[C@H]2[C@H](O)[C@@H](O)[C@@H](O[C@H]3[C@H](O)[C@@H](O)C(O)O[C@@H]3CO)O[C@@H]2CO)[C@H](O)[C@@H](O)[C@@H]1O (stereo partly drawn) [Maltotriose] | 35.0 | 65.0 | 0.623 | – | – | –
2 | OC[C@H]1O[C@H](O[C@H]2[C@H](O)[C@@H](O)C(O)O[C@@H]2CO)[C@H](O)[C@@H](O)[C@@H]1O (mixture of isomers) [Maltose] | – | 100.0 | – | no novel saccharide was formed | – | –
3 | OC[C@H]1O[C@H](O[C@H]2[C@H](O)[C@@H](O)[C@@H](O[C@H]3[C@H](O)[C@@H](O)[C@@H](O[C@H]4[C@H](O)[C@@H](O)[C@@H](O[C@H]5[C@H](O)[C@@H](O)C(O)O[C@@H]5CO)O[C@@H]4CO)O[C@@H]3CO)O[C@@H]2CO)[C@H](O)[C@@H](O)[C@@H]1O (stereo partly drawn) [Maltopentaose] | 92.7 | 7.3 | 0.369 | – | about 93% | –
4 | OC[C@H]1O[C@H](O[C@H]2O[C@H](CO)[C@@H](O[C@H]3O[C@H](CO)[C@@H](O[C@H]4O[C@H](CO)[C@@H](O[C@H]5O[C@H](CO)[C@@H](O)[C@H](O)[C@H]5O)[C@H](O)[C@H]4O)[C@H](O)[C@H]3O)[C@H](O)[C@H]2O)[C@H](O)[C@@H](O)[C@@H]1O [Example A-5] | – | – | – | – | – | lower than 0.2
5 | OC[C@H]1O[C@H](O[C@H]2[C@H](O)[C@@H](O)[C@@H](O[C@H]3[C@H](O)[C@@H](O)[C@@H](O[C@H]4[C@H](O)[C@@H](O)[C@@H](O[C@H]5[C@H](O)[C@@H](O)[C@@H](O[C@H]6[C@H](O)[C@@H](O)[C@@H](O[C@H]7[C@H](O)[C@@H](O)C(O)O[C@@H]7CO)O[C@@H]6CO)O[C@@H]5CO)O[C@@H]4CO)O[C@@H]3CO)O[C@@H]2CO)[C@H](O)[C@@H](O)[C@@H]1O (stereo partly drawn) [Maltoheptaose] | 93.4 | 6.7 | 0.271 | – | – | –
6 | OC[C@H]1OC(O)[C@H](O)[C@@H](O)[C@@H]1O (stereo partly drawn) [Glucose] | – | 100.0 | – | no novel saccharide was formed | – | –
7 | OC[C@H]1O[C@H](O[C@H]2[C@H](O)[C@@H](O)[C@@H](O[C@H]3[C@H](O)[C@@H](O)[C@@H](O[C@H]4[C@H](O)[C@@H](O)[C@@H](O[C@H]5[C@H](O)[C@@H](O)[C@@H](O[C@H]6[C@H](O)[C@@H](O)C(O)O[C@@H]6CO)O[C@@H]5CO)O[C@@H]4CO)O[C@@H]3CO)O[C@@H]2CO)[C@H](O)[C@@H](O)[C@@H]1O (stereo partly drawn) [Maltohexaose] | 93.5 | 6.5 | 0.318 | – | – | –
8 | OC[C@H]1O[C@H](O[C@H]2[C@H](O)[C@@H](O)[C@@H](O[C@H]3[C@H](O)[C@@H](O)[C@@H](O[C@H]4[C@H](O)[C@@H](O)C(O)O[C@@H]4CO)O[C@@H]3CO)O[C@@H]2CO)[C@H](O)[C@@H](O)[C@@H]1O (stereo partly drawn) [Maltotetraose] | 85.6 | 14.4 | 0.475 | – | – | –
